# Where “and” joins values, the source holds several entries; their conditions need not be identical. Identical values can stand only once. Counter-ions that a name gives are not always drawn. Like-named read-outs stand apart in the source and are kept apart here.
# Key:
# [1] = test system: MCF-7; experiment: In vitro tumor cell proliferation, MCF-7; format: cell-based, human; conditions: sulforhodamine B or CyQUANT assay, read-out: In vitro Tumor Cell Proliferation (IC50, μM) Breast MCF-7
# Protocol: (§1) The proliferation of tumor cells was measured using a sulforhodamine B assay as described in Skehan, P., et al., J. Natl. Cancer Inst. […] Tumor cells were harvested with trypsin-EDTA, cells that excluded trypan blue were counted, added to 96-well plates and incubated overnight at 37° C. Drug was added to the wells following dilution in culture medium. Three days later, the medium was removed and replenished with medium containing fresh drug and incubated an additional 4 days. The cells were then fixed with 0.1 ml 10% trichloroacetic acid for 60 min at 4° C. The plates were rinsed five times with tap water, air-dried and stained for 30 min with 0.4% sulforhodamine B in 1% acetic acid and air-dried.
# (§2) Alternatively, the CyQUANT cell proliferation assay was used to quantitate cell proliferation.
# (§3) Alternatively, the CyQUANT cell proliferation assay was used to quantify tumor cell proliferation. Tumor cells were harvested with trypsin-EDTA, cells that excluded trypan blue were counted, added to 96-well plates and incubated overnight at 37° C. Drug was added to the wells following dilution in culture medium. Three days later the medium was removed and the plates frozen at −80° C. for at least 30 minutes.
# MCF7 is a human breast adenocarcinoma, hormone-dependent (HTB 22);
# [2] = test system: HCT-15; experiment: In vitro tumor cell proliferation, HCT-15; format: cell-based, human; conditions: read-out: In vitro Tumor Cell Proliferation (IC50, μM) Colon HCT-15
# Protocol: as §1, §2, §3
# [3] = target: T1, cdk2/cyclin E (Homo sapiens, UniProt P24941); experiment: Cyclin-Dependent Kinase 2 Assay (cdk2/cyclin E, GST-Rb substrate); format: biochemical; conditions: recombinant cdk2/cyclin E, 10 μM ATP, 30 min at 30° C., several values in a cell = separate determinations, read-out: CDK-2 Inhibition IC50
# T1 construct: made in house; host or cells: insect cells (baculovirus co-infection)
# Protocol: Substrate: GST-Rb as described above for cdk4/cyclin D1
# Assay conditions for cdk2/cyclin E were identical to those for cdk4/cyclin D1 including the substrate. The concentration of recombinant cdk2/cyclin E in the assay was 0.1 μg per 100 μl assay. Incubation was for 30 min at 30° C.
# [4] = test system: HT-29; experiment: In vitro tumor cell proliferation, HT-29; format: cell-based, human; conditions: many values given with an undefined *, read-out: In vitro Tumor Cell Proliferation (IC50, μM) Colon HT-29
# Summary of the method: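 Growth was quantified either with CyQUANT, plates frozen at −80° C after 3 days of drug, or by sulforhodamine B staining of TCA-fixed cells after 3 days of drug plus 4 days with fresh drug. Trypan blue-excluding HT-29 cells were plated overnight at 37° C before dosing.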
# [5] = target: T2, cdk4/cyclin D1 (Homo sapiens, UniProt P11802); experiment: Cyclin-dependent Kinase 4 Assay (cdk4/cyclin D1, GST-Rb substrate); format: biochemical; conditions: cdk4/cyclin D1 insect cell lysate, 10 μM ATP, 30 min at 37° C., several values = separate determinations, read-out: CDK4 Inhibition IC50
# T2 construct: made in house; host or cells: Sf9 insect cells (Bac-to-Bac baculovirus, pFastBac)
# Summary of the method: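 IC50 against cdk4 measured by scintillation counting of bead-bound GST-Rb (0.5 μg) after filtration and four TNEN washes. Reaction was 30 min at 37 °C in HEPES pH 7.5 buffer with 10 mM MgCl2 and 1 mM EGTA. Enzyme source was 0.1 μg Sf9 lysate coinfected with cdk4 and cyclin D1.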
# [6] = test system: MDA-MB-231; experiment: In vitro tumor cell proliferation, MDA-MB-231; format: cell-based, human; conditions: sulforhodamine B or CyQUANT assay, many values given with an undefined *, read-out: In vitro Tumor Cell Proliferation (IC50, μM) Breast MDA-MB-231
# Summary of the method: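 Proliferation quantified by SRB staining of TCA-fixed cells after 3 days of drug plus 4 days with replenished drug, following overnight attachment at 37 °C.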
# [7] = test system: DU145; experiment: In vitro tumor cell proliferation, DU145; format: cell-based, human; conditions: many values given with an undefined *, read-out: In vitro Tumor Cell Proliferation (IC50, μM) Prostate DU145
# Summary of the method: (§4)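 Two read-outs were used: sulforhodamine B after 3 + 4 days of drug with re-dosing at medium change, or CyQUANT after 3 days of drug and freezing of plates at −80° C for at least 30 minutes.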
# [8] = test system: DMS-114; experiment: In vitro tumor cell proliferation, DMS-114; format: cell-based, human; conditions: many values given with an undefined *, read-out: In vitro Tumor Cell Proliferation (IC50, μM) Lung DMS-114
# Summary of the method: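 Human small cell lung carcinoma DMS-114 cells plated overnight, then drug-treated for 3 days, medium and drug renewed, and incubated 4 more days. Growth read by sulforhodamine B staining after TCA fixation; alternatively by CyQUANT after 3 days' drug exposure and freezing at −80 °C.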
# [9] = test system: PC-3; experiment: In vitro tumor cell proliferation, PC-3; format: cell-based, human; conditions: many values given with an undefined *, read-out: In vitro Tumor Cell Proliferation (IC50, μM) Prostate PC-3
# Summary of the method: as §4
# [10] = test system: A549; experiment: In vitro tumor cell proliferation, A549; format: cell-based, human; conditions: many values given with an undefined *, read-out: In vitro Tumor Cell Proliferation (IC50, μM) Lung A549
# Summary of the method: as §4
# [11] = Homo sapiens, MDA-MB-231, MDA-MB-231
# T2 sequence (P11802 whole entry): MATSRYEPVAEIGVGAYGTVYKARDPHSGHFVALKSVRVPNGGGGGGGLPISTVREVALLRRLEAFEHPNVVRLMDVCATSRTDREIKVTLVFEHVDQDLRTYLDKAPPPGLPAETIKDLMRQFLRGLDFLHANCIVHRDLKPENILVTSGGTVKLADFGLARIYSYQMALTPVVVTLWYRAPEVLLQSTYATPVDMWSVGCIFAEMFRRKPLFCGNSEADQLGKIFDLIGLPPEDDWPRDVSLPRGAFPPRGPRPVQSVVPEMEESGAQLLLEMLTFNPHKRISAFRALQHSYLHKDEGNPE
# T2 sequence (P24385 whole entry partner): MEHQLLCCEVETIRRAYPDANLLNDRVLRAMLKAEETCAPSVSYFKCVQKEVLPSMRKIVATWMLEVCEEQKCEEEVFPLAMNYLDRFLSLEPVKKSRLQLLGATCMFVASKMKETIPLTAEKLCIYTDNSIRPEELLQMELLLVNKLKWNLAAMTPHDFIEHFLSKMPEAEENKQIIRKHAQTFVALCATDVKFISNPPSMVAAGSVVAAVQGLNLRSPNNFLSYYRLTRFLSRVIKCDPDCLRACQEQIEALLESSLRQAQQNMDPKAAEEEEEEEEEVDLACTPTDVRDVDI
Structure (SMILES),"IC50 ([1]; Homo sapiens, MCF7, MCF-7) [µM]","IC50 ([2]; Homo sapiens, HCT-15, HCT-15) [µM]",IC50 [3],"IC50 ([4]; Homo sapiens, HT-29, HT-29) [µM]",IC50 [5],"IC50 [6, 11] [µM]","IC50 ([6]; MDA-MB-231, dihydrochloride) [µM]","IC50 ([1]; MCF-7, dihydrochloride) [µM]","IC50 ([2]; HCT-15, dihydrochloride) [µM]","IC50 ([4]; HT-29, dihydrochloride) [µM]","IC50 ([7]; DU145, dihydrochloride) [µM]","IC50 ([7]; Homo sapiens, DU-145, DU145) [µM]","IC50 ([8]; DMS-114, dihydrochloride) [µM]","IC50 ([8]; Homo sapiens, DMS-114, DMS-114) [µM]","IC50 ([9]; Homo sapiens, PC-3, PC-3) [µM]","IC50 ([9]; PC-3, dihydrochloride) [µM]","IC50 ([10]; A549, dihydrochloride) [µM]","IC50 ([10]; Homo sapiens, A549, A549) [µM]",further results
"N[C@H]1CC[C@H](Nc2nc(NCc3cccc(I)c3)c3ncn(C4C=CCC4)c3n2)CC1 (relative stereo) [Example 35, 2-[Trans-(4-aminocyclohexyl)amino]-6-[(3-iodobenzyl)amino]-9-(2-cyclopentenyl)purine hydrochloride]",2.9,5.7,0.49 µM and 0.14 µM,2.1,9.4 µM and 7.7 µM,,,,,,,,,,,,,,"IC50 ([1]; MCF-7, hydrochloride): 1.9 µM; IC50 ([2]; HCT-15, hydrochloride): 4 µM; IC50 ([4]; HT-29, hydrochloride): 1.9 µM"
"N[C@H]1CC[C@H](Nc2nc(NCc3ccc(C(F)(F)F)cc3)c3ncn(C4CCCC4)c3n2)CC1 [Example 1, 2-[Trans-(4-aminocyclohexyl)amino]-6-[(4-trifluorobenzyl)amino]-9-cyclopentylpurine dihydrochloride]",1.2,2.4,0.12 µM and 0.081 µM,1.5,2 µM and 2.7 µM and 1.7 µM,1.4,1.5,1.6,2.5,1.6,1.5,1.4,0.86,1.1,0.96,1,0.9,0.97,
"COc1ccc(CNc2nc(N[C@H]3CC[C@H](N)CC3)nc3c2ncn3C2CCCC2)cc1 [Example 8, 2-[Trans-(4-aminocyclohexyl)amino]-6-[(4-methoxybenzyl)amino]-9-cyclopentylpurine dihydrochloride]",,4.5,30 nM (2×) and 48 nM and 22 nM,1.3,6.6 µM and 3.2 µM,0.88,1.2,,3.5,1.4,1.2,0.88,0.89,0.8,0.98,0.63,1.1,0.8,
"COc1ccccc1CNc1nc(N[C@H]2CC[C@H](N)CC2)nc2c1ncn2C1CCCC1 [Example 12, 2-[Trans-(4-aminocyclohexyl)amino]-6-[(2-methoxybenzyl)amino]-9-cyclopentylpurine dihydrochloride]",,16,0.23 µM,7.3,4.5 µM and 6.2 µM,8.6,11,,,8.5,6.7,3.5,,5.4,4.4,3.5,3.5,5.6,
"COc1cccc(CNc2nc(N[C@H]3CC[C@H](N)CC3)nc3c2ncn3C2CCCC2)c1OC [Example 13, 2-[Trans-(4-aminocyclohexyl)amino]-6-[(2,3-dimethoxybenzyl)amino]-9-cyclopentylpurine dihydrochloride]",2,,0.05 µM,3.1,2.9 µM,2.2,2.6,,,3.4,1.7,0.99,1.4,1,1.9,1.3,,1.7,
"COc1ccc(CNc2nc(N[C@H]3CC[C@H](N)CC3)nc3c2ncn3C2CCCC2)c(OC)c1 [Example 17, 2-[Trans-(4-aminocyclohexyl)amino]-6-[(2,4-dimethoxybenzyl)amino]-9-cyclopentylpurine dihydrochloride]",,9.9,0.35 µM,6.8,,6.1,7.9,,,,6.9,3.6,5.8,5.3,4,,7.5,6.8,
"N[C@H]1CC[C@H](Nc2nc(NCc3ccccc3C(F)(F)F)c3ncn(C4CCCC4)c3n2)CC1 [Example 25, 2-[Trans-(4-aminocyclohexyl)amino]-6-[(2-trifluorobenzyl)amino]-9-cyclopentylpurine dihydrochloride]",,4,0.26 µM,2.6,6.4 µM and 6.9 µM,4.5,4.3,,3.7,3,1.7,0.95,0.95,0.85,1.1,1.7,,1.9,
"COc1cc(CNc2nc(N[C@H]3CC[C@H](N)CC3)nc3c2ncn3C2CCCC2)cc(OC)c1 [Example 28, 2-[Trans-(4-aminocyclohexyl)amino]-6-[(3 5-dimethoxybenzyl)amino]-9-cyclopentylpurine dihydrochloride]",5.6,> 20,0.48 µM,12,2.2 µM and 2.6 µM,12,,11,,,9.1,6.4,7.7,6.1,4.8,6.4,,1.9,
"COc1ccc(CNc2nc(N[C@H]3CC[C@H](N)CC3)nc3c2ncn3C2CCCC2)cc1OC [Example 34, 2-[Trans-(4-aminocyclohexyl)amino]-6-[3,4-dimethoxybenzyl)amino]-9-cyclopentylpurine dihydrochloride]",2.3,7.7,0.08 µM,3.4,1.2 µM and 0.8 µM,3.4,5.8,3.5,,6,4.3,2.7,4.5,4.2,1,2,4.8,3.4,
